Where two headings read alike, the source gives them in different places.

For experiment [1], the target named is T1, Neu 1 (Homo sapiens, UniProt Q99519). The settings on record: marked *: Values reported in the literature; cited from earlier work.
Experiment [2] deals with sAPPα. As to the kind of experiment: sAPPα shedding by N2A mouse neuroblastomas (22C11 immunoblot of media). The experiment is classed as cell-based. The settings on record: 10 μM, 3 days. As to the method:
(§1) The data shown in FIG. 4 was generated as follows. N2A mouse neuroblastomas were treated for 3 days either with no compound or with 10 μM AdDNJ, 10 μM NGT or 10 μM DGJ. The cells were scraped, harvested by centrifugation, and the cell pellet was solubilized using RIPA buffer (1% TX100, 0.5% Taurodeoxycholate, and 0.1% SDS in TBS plus protease inhibitors). The cell lysate was immunoblotted using a rabbit polyclonal antibody specific for HexB (Abcam). The levels of sAPPα were determined by immunoblotting a small fraction (30 μl) of the growth media using 22C11 antibody (Millipore).
(§2) FIG. 4A) Treatment of N2A mouse neuroblastomas with 10 μM NGT and AdDNJ increased cellular levels of wild-type β-Hex while deoxygalactonojirimycin (DGJ), a pharmacological chaperone for the lysosomal enzyme acid α-galactosidase, had no effect on β-Hex levels.

For experiment [3], the target named is B-Hex (β-hexosaminidase, Hex A/B). As to the kind of experiment: Comparative selectivity of pharmacological chaperones: B-Hex inhibition. As to conditions: marked **: Values reported as Ki's; read-out: IC50 B-Hex, values reported as Ki's. In kind it is biochemical.
The next experiment has as its target T2, wild-type β-Hex (Mus musculus, UniProt P20060).
T2 construct: increase in endogenous wild-type β-hexosaminidase levels and sAPPα shedding in N2A mouse neuroblastomas; endogenous in cells; host or cells: N2A mouse neuroblastoma cells
T2 sequence (P20060 32-536): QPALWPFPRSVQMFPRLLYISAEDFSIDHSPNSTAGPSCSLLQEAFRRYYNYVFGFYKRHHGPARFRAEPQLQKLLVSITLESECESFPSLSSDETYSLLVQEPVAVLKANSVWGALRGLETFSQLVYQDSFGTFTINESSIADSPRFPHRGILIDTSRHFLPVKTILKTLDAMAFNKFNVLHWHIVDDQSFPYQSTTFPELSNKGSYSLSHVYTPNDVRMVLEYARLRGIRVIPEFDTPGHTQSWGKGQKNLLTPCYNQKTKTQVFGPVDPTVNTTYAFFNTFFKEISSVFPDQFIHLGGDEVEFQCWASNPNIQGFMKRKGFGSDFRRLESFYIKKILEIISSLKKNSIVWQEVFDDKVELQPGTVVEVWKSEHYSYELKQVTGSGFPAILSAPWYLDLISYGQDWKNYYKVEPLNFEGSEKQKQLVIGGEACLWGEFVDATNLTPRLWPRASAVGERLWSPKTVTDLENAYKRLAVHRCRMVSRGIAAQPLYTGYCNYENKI
Put plainly: Cellular β-Hex levels in N2A mouse neuroblastomas (HexB immunoblot). The settings on record: 10 μM, 3 days. The experiment is classed as cell-based. As to the method:
as §1, §2

In a further experiment the target is T3, Neu 3 (Homo sapiens, UniProt Q9UQ49).
T3 sequence (Q9UQ49 1-428): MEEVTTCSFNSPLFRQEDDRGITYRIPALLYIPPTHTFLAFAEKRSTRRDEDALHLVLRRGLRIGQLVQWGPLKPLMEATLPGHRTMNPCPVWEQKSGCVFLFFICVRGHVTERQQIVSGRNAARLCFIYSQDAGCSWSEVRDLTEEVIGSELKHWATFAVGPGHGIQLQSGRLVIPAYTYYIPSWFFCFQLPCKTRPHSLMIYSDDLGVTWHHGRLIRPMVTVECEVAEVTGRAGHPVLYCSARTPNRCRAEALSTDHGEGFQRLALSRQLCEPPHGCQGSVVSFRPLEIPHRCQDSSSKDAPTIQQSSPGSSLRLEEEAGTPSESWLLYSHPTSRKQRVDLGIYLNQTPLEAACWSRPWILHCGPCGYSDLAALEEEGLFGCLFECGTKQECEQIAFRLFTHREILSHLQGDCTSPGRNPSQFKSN
The settings on record: marked *: Values reported in the literature; cited from earlier work.

The target of experiment [4] is T4, wild-type endogenous neuraminidase 1 (Homo sapiens, UniProt Q99519).
T4 construct: selectively increases wild-type endogenous neuraminidase-1 levels in fibroblasts; endogenous in cells; host or cells: healthy control fibroblasts
As to the kind of experiment: Neuraminidase 1 levels in fibroblasts derived from healthy individuals. In kind it is cell-based. As to conditions: 5 days. As to the method: The data shown in FIG. 7 was generated as follows. Healthy control fibroblasts were treated for 5 days either with NB-DANA or IFG. The cells were scraped, harvested by centrifugation, and the cell pellet was solubilized using RIPA buffer (1% TX100, 0.5% Taurodeoxycholate, and 0.1% SDS in TBS plus protease inhibitors). The cell lysate was immunoblotted using a polyclonal antibody specific for Neu1 (Novus).
(A) The pharmacological chaperone NB-DANA increased wild-type endogenous neuraminidase 1 levels by up to 2 fold. […] Fibroblasts derived from healthy individuals were treated with NB-DANA or IFG for 5 days and enzyme activity was measured in cell lysates using the substrate NANA-4-MU. Enzyme activity was expressed as nmol of 4-MU generated per mg protein per hour.

The test system of experiment [5] is sAPPα. As to the kind of experiment: sAPPα production by fibroblasts treated with NB-DGJ (6E10 immunoblot). The experiment is classed as cell-based, human. The settings on record: Sandhoff fibroblasts, 5 days treatment. On the procedure:
The data shown in FIG. 3 was generated as follows. A wild type(healthy) fibroblast cell line (CRL2076; Coriell) and a fibroblast cell line from a Sandhoff patient (GM11707; Coriell) were cultured overnight in DMEM (plus 10% FBS) growth medium, followed by an overnight incubation in serum free media. Secreted proteins were collected by TCA precipitation (12.5%) of the growth media and analyzed by immunoblotting using 6E10 antibody (Covance) to determine the levels of sAPPα. […] To measure levels of secreted Aβ40 in media, fibroblasts (CRL2076 & GM11707) were cultured overnight in DMEM (plus 10% FBS) growth medium (3 wells/sample; 1 ml media/well), followed by an overnight incubation in serum free media. The 3 wells/sample were combined and mixed with 0.3 ml methanol, 30 μl 10% TFA (Trifluoroacetic acid). The samples were pre-concentrated using a Sepak C18 column (Waters) and then used in an ELISA assay (Covance) to determine the levels of Aβ40. To determine the levels of full length APP, fibroblasts (CRL2076 & GM11707) were cultured overnight in DMEM (plus 10% FBS) growth medium. […] Secreted proteins were collected by TCA precipitation (12.5%) of the growth media and analyzed by immunoblotting using 6E10 antibody (Covance) to determine the levels of sAPPα. […]

The next experiment addresses Neu 2 (Homo sapiens, UniProt Q9Y3R4). The settings on record: marked *: Values reported in the literature; cited from earlier work.
For experiment [6], the target named is T1, Neu 1. Put plainly: Comparative selectivity: Neu 1 inhibition. In kind it is biochemical.
A further experiment concerns the target T5, Neu 4 (Homo sapiens, UniProt Q8WWR8).
T5 sequence (Q8WWR8 1-484): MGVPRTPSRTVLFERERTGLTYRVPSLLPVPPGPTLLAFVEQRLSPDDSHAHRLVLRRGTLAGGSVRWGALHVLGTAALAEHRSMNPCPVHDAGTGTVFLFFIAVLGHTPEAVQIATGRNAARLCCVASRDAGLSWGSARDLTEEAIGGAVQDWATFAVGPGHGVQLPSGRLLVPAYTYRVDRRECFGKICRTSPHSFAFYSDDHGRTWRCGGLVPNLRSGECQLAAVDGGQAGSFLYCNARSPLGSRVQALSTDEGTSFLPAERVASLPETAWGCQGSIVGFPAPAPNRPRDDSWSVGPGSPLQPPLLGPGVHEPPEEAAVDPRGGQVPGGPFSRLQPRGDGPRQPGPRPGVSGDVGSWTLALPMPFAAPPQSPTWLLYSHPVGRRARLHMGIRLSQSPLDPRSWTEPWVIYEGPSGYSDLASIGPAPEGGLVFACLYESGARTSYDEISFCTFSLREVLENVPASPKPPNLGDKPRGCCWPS
As to conditions: marked *: Values reported in the literature; cited from earlier work.

Sequence of Neu 2 (Q9Y3R4 whole entry): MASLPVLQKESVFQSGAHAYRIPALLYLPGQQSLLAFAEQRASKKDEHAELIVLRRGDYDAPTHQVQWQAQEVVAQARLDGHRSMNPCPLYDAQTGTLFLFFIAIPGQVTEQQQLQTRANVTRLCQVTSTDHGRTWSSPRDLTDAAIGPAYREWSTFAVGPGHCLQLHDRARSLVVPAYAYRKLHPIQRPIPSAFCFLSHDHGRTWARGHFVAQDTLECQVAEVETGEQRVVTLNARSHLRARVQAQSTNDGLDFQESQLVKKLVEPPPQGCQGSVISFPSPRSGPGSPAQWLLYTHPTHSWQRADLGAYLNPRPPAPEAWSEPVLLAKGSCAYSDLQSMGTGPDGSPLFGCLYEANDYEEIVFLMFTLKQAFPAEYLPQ

In the case of “5-(acetylamino)-4-[(aminoiminomethyl)-amino]-2,6-anhydro-3,4,5-trideoxy-D-glycero-D-galacto-non-2-enonic acid [Zanamivir]”, at Neu 1 [1], the IC50 is 2710 µM.
For the molecule `CC(=O)N[C@H]1CN[C@H](CO)[C@@H](O)[C@@H]1O` [AdDNJ, 2-acetamido-1,2-dideoxynojirimycin], in the experiment on sAPPα [2], the “shedding of neurotrophic sAPPα” value was “increased”. In addition, the Ki in experiment [3] came out at 0.7 µM. Also, on wild-type β-Hex, the “cellular levels of wild-type β-Hex” value was “increased”.
Turning to `CC(=O)N[C@H]1[C@H]([C@H](O)[C@H](O)CO)OC(C(=O)O)=C[C@@H]1O` [DANA, 2-deoxy-2,3-dehydro-N-acetylneuraminic acid], the IC50 on Neu 3 was 61 µM.
On to `OC[C@H]1NC[C@H](O)[C@@H](O)[C@H]1O` [DGJ, deoxygalactonojirimycin, reference compound], for which the “cellular levels of wild-type β-Hex” value on wild-type β-Hex is on record as “no effect”.
In the case of `OC[C@H]1CNC[C@@H](O)[C@@H]1O` [IFG, isofagomine, reference compound], the “effect on wild-type neuraminidase 1 levels” value in experiment [4] is reported as “does not increase”.
With `CCCCN1C[C@H](O)[C@@H](O)[C@@H](O)[C@H]1CO` [N-butyl-deoxygalactonojirimycin], the “increase in production of sAPPα” value with sAPPα [5] was 35-40%.
As for `CCCCOC(=O)C1=C[C@H](O)[C@@H](NC(C)=O)[C@H]([C@H](O)[C@H](O)CO)O1` [NB-DANA, n-butyl-2-deoxy-2,3-dehydro-N-acetylneuraminic acid], the IC50 is greater than 1000 µM at Neu 2, greater than 1000 µM at Neu 3, 10 µM against Neu 1 [6] and greater than 1000 µM on Neu 4. Besides, in experiment [4], the “increase of wild-type endogenous neuraminidase 1 levels” value is recorded as “up to 2 fold”.
Regarding `CC(=O)N[C@H]1[C@H]([C@H](O)[C@H](O)CO)OC(C(=O)Oc2ccccc2)=C[C@@H]1O` [Phenyl DANA, Phenyl 2-deoxy-2,3-dehydro-N-acetylneuraminic acid, reference compound], the IC50 on Neu 2 is 865 µM; at Neu 3, 320 µM; on Neu 4 it was 810 µM; at Neu 1 [1] it was 13 µM.
